The text below walks through data of ChEMBL document CHEMBL5131432, “Novel 2,4-disubstituted quinazoline analogs as antibacterial agents with improved cytotoxicity profile: Modification of the benzenoid part” (Bioorg Med Chem Lett, 2022).

A word on the MIC: it is the smallest concentration in the dilution series that meets the test's criterion for growth inhibition. For orientation: IC50 means the concentration needed to halve the response being measured.

≈ marks a conversion by molar mass, not a printed value.

Data set [1] in a line: Chemical stability of compound in DMSO assessed as change in physico-chemical properties incubated for 2 days. It is filed as physicochemical. To be noted: 48 h; time 2 day.
Data set [2] in a line: Chemical stability of compound in DMSO assessed as change in retardation factor incubated for 2 days. It is filed as physicochemical. To be noted: 48 h; time 2 day.
A further data set relates to Enterococcus faecium. The experiment in a line: Antibacterial activity against Enterococcus faecium DSM-20477 assessed as bacterial growth inhibition. It is filed as functional.
Data set [3] relates to Escherichia coli. The experiment in a line: Antibacterial activity against Escherichia coli K12 harbouring TolC-deficient mutant assessed as bacterial growth inhibition. It is filed as functional.
The test system of data set [4] is Mycolicibacterium smegmatis. Put plainly: Antibacterial activity against Mycobacterium smegmatis mc2 155 assessed as bacterial growth inhibition. It is filed as functional.
In data set [5] the test system is Staphylococcus aureus. Put plainly: Antibacterial activity against methicillin-resistant Staphylococcus aureus N315 assessed as bacterial growth inhibition. It is filed as functional.
The subject of data set [6] is Escherichia coli. The experiment in a line: Antibacterial activity against wild type Escherichia coli DSM-11116 assessed as bacterial growth inhibition. It is filed as functional.
Data set [7] has as its system Staphylococcus aureus. Put plainly: Antibacterial activity against methicillin-resistant and vancomycin-intermediate Staphylococcus aureus Mu50 assessed as bacterial growth inhibition. It is filed as functional.
A further data set has as its system Enterococcus faecalis. The experiment in a line: Antibacterial activity against Enterococcus faecalis DSM-20478 assessed as bacterial growth inhibition. It is filed as functional.
For data set [8], the system named is Streptococcus pneumoniae. Put plainly: Antibacterial activity against penicillin-resistant Streptococcus pneumoniae DSM-11865 assessed as bacterial growth inhibition. It is filed as functional.
Data set [9] can be described thus: Stability of the compound in presence of 25kGy gamma irradiation assessed as change in mass and purity by LC-MS analysis. It is filed as physicochemical.
Data set [10] relates to Staphylococcus aureus. The experiment in a line: Antibacterial activity against methicillin-sensitive Staphylococcus aureus Newman assessed as bacterial growth inhibition. It is filed as functional.
The test system of data set [11] is Streptococcus pneumoniae. Put plainly: Antibacterial activity against Streptococcus pneumoniae DSM-20566 assessed as bacterial growth inhibition. It is filed as functional.
A short description of data set [12]: Chemical stability of compound in DMSO assessed as change in mass and purity incubated for 2 days by LC-MS analysis. It is filed as physicochemical. To be noted: 48 h; time 2 day.
Data set [13] concerns Mycolicibacterium smegmatis. The experiment in a line: Antibacterial activity against Mycobacterium smegmatis assessed as bacterial growth inhibition. It is filed as functional.
Data set [14] relates to Escherichia coli. Put plainly: Antibacterial activity against Escherichia coli harbouring TolC-deficient mutant assessed as bacterial growth inhibition. It is filed as functional.
Data set [15] is described as follows: Selectivity index, ratio of IC50 for cytotoxicity against human HepG2 cells to MIC for antibacterial activity against Enterococcus faecium DSM-20477. It is filed as toxicity, cell-based.
Data set [16] is described as follows: Selectivity index, ratio of IC50 for cytotoxicity against human HepG2 cells to MIC for antibacterial activity against Enterococcus faecalis DSM-20478. It is filed as toxicity, cell-based.
Data set [17] can be described thus: Selectivity index, ratio of IC50 for cytotoxicity against human HepG2 cells to MIC for antibacterial activity against Streptococcus pneumoniae DSM-20566. It is filed as toxicity, cell-based.
Data set [18] in a line: Cytotoxicity against human HepG2 cells assessed as inhibition of cell growth. It is filed as toxicity, cell-based.
The nature of data set [19]: Selectivity index, ratio of IC50 for cytotoxicity against human HepG2 cells to MIC for antibacterial activity against methicillin-sensitive Staphylococcus aureus Newman. It is filed as toxicity, cell-based.

As for `CCCCNc1nc(SCCCC)nc2cc(F)ccc12`, the Stability entry in data set [1], in data set [2], in data set [9] and in data set [12] was “Stable” in each case. Also, the MIC (in the data set with Enterococcus faecium; with Escherichia coli [3]; in data set [4]; with Staphylococcus aureus [5]; in the data set with Escherichia coli [6]; in the data set with Staphylococcus aureus [7]) was above 128 µg/mL in each case. Further, the MIC in the data set with Enterococcus faecalis, in the data set on Streptococcus pneumoniae [8], in the data set on Staphylococcus aureus [10] and in the data set with Streptococcus pneumoniae [11] was above 128 µg/mL each time.
Regarding `CCCCNc1nc(SCCCC)nc2n[nH]cc12`, the Stability entry in data set [1], in data set [2], in data set [9] and in data set [12] was “Stable” throughout. The MIC with Enterococcus faecium was above 128 µg/mL; in the data set with Escherichia coli [3], 4 µg/mL (≈ 14.3 µM); in data set [4], above 128 µg/mL; in the data set with Staphylococcus aureus [5], above 128 µg/mL; with Escherichia coli [6], above 128 µg/mL; in the data set on Staphylococcus aureus [7], above 128 µg/mL. Besides, the MIC with Enterococcus faecalis, in the data set on Streptococcus pneumoniae [8], with Staphylococcus aureus [10] and in the data set on Streptococcus pneumoniae [11] was above 128 µg/mL in each case.
On to `CCCCNc1nc(SCCCC)nc2ccccc12`, for which the minimal inhibitory concentration (MIC) in the data set with Enterococcus faecium was 4 µg/mL (≈ 13.8 µM); in the data set with Escherichia coli [3] it was 2 µg/mL (≈ 6.91 µM); in [4], 8 µg/mL (≈ 27.6 µM); in the data set with Staphylococcus aureus [5], 8 µg/mL (≈ 27.6 µM); in the data set with Escherichia coli [6], above 128 µg/mL; with Staphylococcus aureus [7], 4 µg/mL (≈ 13.8 µM). Moreover, the MIC was 4 µg/mL (≈ 13.8 µM) in the data set on Enterococcus faecalis; 2 µg/mL (≈ 6.91 µM) in data set [13]; 3 µg/mL (≈ 10.4 µM) in the data set with Streptococcus pneumoniae [8]; 8 µg/mL (≈ 27.6 µM) with Staphylococcus aureus [10]; 4 µg/mL (≈ 13.8 µM) with Streptococcus pneumoniae [11]; 2 µg/mL (≈ 6.91 µM) in the data set on Escherichia coli [14].
With `CCCCNc1nc(SCCCC)nc2ccc(-c3cccc(O)c3)cc12`, the selectivity ratio in data set [15], in data set [16], in data set [17] and in [19] was 3 throughout. Besides, the MIC was 4 µg/mL (≈ 10.5 µM) in the data set with Enterococcus faecium; above 128 µg/mL in the data set with Escherichia coli [3]; 16 µg/mL (≈ 41.9 µM) in [4]; above 128 µg/mL in the data set with Staphylococcus aureus [5]; above 128 µg/mL with Escherichia coli [6]; above 128 µg/mL with Staphylococcus aureus [7]. The MIC is 2 µg/mL (≈ 5.24 µM) in the data set with Enterococcus faecalis, 16 µg/mL (≈ 41.9 µM) with Streptococcus pneumoniae [8], 2 µg/mL (≈ 5.24 µM) in the data set with Staphylococcus aureus [10] and 1 µg/mL (≈ 2.62 µM) in the data set with Streptococcus pneumoniae [11]. Further, the 50% inhibitory concentration (IC50) in data set [18] was determined as 15.3 µg/mL (≈ 40.1 µM).
For the compound `CCCCNc1nc(SCCCC)nc2ccc(-c3ccccc3)cc12`, the Stability result in [1], in data set [2], in [9] and in data set [12] was “Stable” in each case. Also, the MIC (with Enterococcus faecium; with Escherichia coli [3]; in [4]; in the data set on Staphylococcus aureus [5]; in the data set on Escherichia coli [6]; with Staphylococcus aureus [7]) was above 128 µg/mL throughout. The minimal inhibitory concentration (MIC) with Enterococcus faecalis, in the data set on Streptococcus pneumoniae [8], with Staphylococcus aureus [10] and in the data set on Streptococcus pneumoniae [11] was above 128 µg/mL throughout.
